The test system of assay [1] is AKT. Put plainly: AKT signaling immunoblot / phospho-array, HUVECs. The class given is cell-based, human. The method, then:
(§1) Cellular reagents were purchased from various commercial vendors. Primary human umbilical vein endothelial cells (HUVECs) were obtained from Cell Applications Inc. and cultured according to the manufacture's recommendations. Primary human coronary artery smooth muscle cells were obtained from Invitrogen and were cultured according to the manufacture's recommendations. 293T cells were obtained from ATCC and were cultured according to the manufacture's recommendations. Mouse primary smooth muscle cells were obtained and cultured as described previously. Predesigned Silencer Select siRNA constructs targeting Pearl 1 and negative control siRNA were obtained from ThermoFisher. Transfections were performed using RNAiMAX or Lipofectamine 3000 transfection reagents according to the manufacturer's protocols. Cells were used for signaling assays 48 hours after transfection; efficient Pearl 1 knockdown or Pearl 1 overexpression was confirmed by immunoblot assays.
Prior to performing signaling assays, cells were trypsinized, centrifuged, suspended in basal media, and counted using an automated hemocytometer. Cells were further diluted in basal media to an assay-dependent concentration. Cells were then incubated with gentle agitation for 60 minutes to prevent cell attachment and reduce basal signaling. PP1, Dynasore, MK-2206, and Rapamycin were diluted in DMSO and used in assay concentrations of 10 μM, 100 μM, 10 μM, and respectively, for the final 20-30 minutes of incubation in basal media. An equal volume of DMSO was used as the negative control condition. […] 1 μg Pearl 1 polyclonal antibody was added as a specific positive control. 20% growth media or 2% fetal bovine serum, labeled “Serum” in figures, was added as a non-specific positive control. The cells were centrifuged at 300G for 3 minutes with the exception of platelets, which were centrifuged at 500G for 5 minutes. The cells were then incubated at 37° C. for 8-45 minutes, depending on the cell type and pathway of interest. The cells were lysed in radioimmunoprecipitation buffer (RIPA) containing a cocktail of protease and phosphatase inhibitors and universal nuclease. Immunoblots were performed by standard techniques, as briefly follows. Protein content was determined using a bicinchoninic acid assay with BSA standards (#23225, Pierce BCA Protein Assay Kit). Cell lysates were then reduced with dithiothreitol (DTT) in lithium dodecyl sulfate (LDS) sample buffer (#NP0007, Invitrogen). Equal protein amounts were added to polyacrylamide gels (#4561086, BioRad) and electrophoresed prior to transferring to a nitrocellulose or polyvinylidene fluoride membrane (#1620260, BioRad). Membranes were blocked in 5% BSA/Tris-buffered saline (TBS) with 0.1% Tween 20 for 30 minutes. […]
(In general: In western blotting, separated proteins are transferred to a membrane and probed.)

Assay [2] relates to AKT. Nature of the assay: AKT signaling immunoblot, 293T cells. It is filed as cell-based. As for the experimental part:
as §1
Prior to performing signaling assays, cells were trypsinized, centrifuged, suspended in basal media, and counted using an automated hemocytometer. Cells were further diluted in basal media to an assay-dependent concentration. […] Protein content was determined using a bicinchoninic acid assay with BSA standards (#23225, Pierce BCA Protein Assay Kit). […]

Assay [3] relates to THP-1 cells.
Protocol: 2,000 cells were added to each well and incubated for 8 hr to assure complete cell adhesion. […] Adhesion assays were performed in precoated 96-well plates blocked with 100 mg ml-l BSA. Blocking conditions were empirically derived to minimize non-specific cell adhesion. After 5 min (for THP-1 cells) or 15 min (for VSMCs) incubation, non-adhered cells were removed by gently centrifuging the plates upside down. VSMCs were counted manually and THP-1 cells were counted by automated microscopy after staining cells with DAPI.
Assay [4] addresses Pearl 1ECD (Homo sapiens, UniProt Q5VY43). To be noted: pulldown assays.
Protocol: The assay buffer consisted of lmg/mL BSA, 0.01% Tween 20, and 10 mM Ca^2+ in PBS. The proteins were incubated together for two hours while rotating. Where indicated, 2 μg primary antibodies were added during the final 30 minutes of the initial incubation. Following the incubation, aliquots were reserved as the input fraction. Subsequently, 6-10 μL slurry of Pierce Anti-c-Myc Magnetic Beads, Invitrogen Dynabeads Protein G beads, or Pierce Streptavidin Magnetic Bead slurry were added, followed by a 1-hour incubation at 20° C. with gentle agitation. Beads were washed in PBS +0.01% Tween 20 and resuspended reducing LDS sample buffer and analyzed by immunoblot assay.
Assay [5] has as its system Integrin signaling. Nature of the assay: Integrin signaling western blot, THP-1 cells. The class given is cell-based, human. The method, then: Cells were resuspended in serum-free media (SFM) and incubated with gentle agitation to prevent cell attachment and reduce basal signaling. […] Cells were briefly centrifuged to the bottom of the wells and incubated for 8 min (for VSMCs) or 15 min (for THP-1 cells) before lysis with cell lysis buffer (#9803, Cell Signaling Technologies) containing a cocktail of protease and phosphatase inhibitors. Western blots were performed by standard techniques, as briefly follows. Protein content was determined using a bicinchoninic acid assay with BSA standards (#23225, Pierce™ BCA Protein Assay Kit). Cell lysates were then reduced with DTT in lithium dodecyl sulfate sample buffer (#NP0007, Invitrogen). Equal protein amounts were added to polyacrylamide gels (#4561086, BioRad) and electrophoresed prior to transferring to a nitrocellulose or polyvinylidene fluoride membrane (#1620260, BioRad). Membranes were blocked in 5% BSA/Tris-Buffered Saline with tween 20 for 30 min. The indicated primary antibodies were incubated with the pre-blocked membranes for overnight at 4° C. Membranes were washed with Tris-Buffered Saline with tween 20, probed with fluorescent secondary antibodies, and imaged. β-actin or β-tubulin served as a loading control.

In assay [6] the target is Fibronectin (Mus musculus, UniProt P11276). The conditions noted are these: enriched VSMC media.
Sequence of Fibronectin (P11276 33-2477): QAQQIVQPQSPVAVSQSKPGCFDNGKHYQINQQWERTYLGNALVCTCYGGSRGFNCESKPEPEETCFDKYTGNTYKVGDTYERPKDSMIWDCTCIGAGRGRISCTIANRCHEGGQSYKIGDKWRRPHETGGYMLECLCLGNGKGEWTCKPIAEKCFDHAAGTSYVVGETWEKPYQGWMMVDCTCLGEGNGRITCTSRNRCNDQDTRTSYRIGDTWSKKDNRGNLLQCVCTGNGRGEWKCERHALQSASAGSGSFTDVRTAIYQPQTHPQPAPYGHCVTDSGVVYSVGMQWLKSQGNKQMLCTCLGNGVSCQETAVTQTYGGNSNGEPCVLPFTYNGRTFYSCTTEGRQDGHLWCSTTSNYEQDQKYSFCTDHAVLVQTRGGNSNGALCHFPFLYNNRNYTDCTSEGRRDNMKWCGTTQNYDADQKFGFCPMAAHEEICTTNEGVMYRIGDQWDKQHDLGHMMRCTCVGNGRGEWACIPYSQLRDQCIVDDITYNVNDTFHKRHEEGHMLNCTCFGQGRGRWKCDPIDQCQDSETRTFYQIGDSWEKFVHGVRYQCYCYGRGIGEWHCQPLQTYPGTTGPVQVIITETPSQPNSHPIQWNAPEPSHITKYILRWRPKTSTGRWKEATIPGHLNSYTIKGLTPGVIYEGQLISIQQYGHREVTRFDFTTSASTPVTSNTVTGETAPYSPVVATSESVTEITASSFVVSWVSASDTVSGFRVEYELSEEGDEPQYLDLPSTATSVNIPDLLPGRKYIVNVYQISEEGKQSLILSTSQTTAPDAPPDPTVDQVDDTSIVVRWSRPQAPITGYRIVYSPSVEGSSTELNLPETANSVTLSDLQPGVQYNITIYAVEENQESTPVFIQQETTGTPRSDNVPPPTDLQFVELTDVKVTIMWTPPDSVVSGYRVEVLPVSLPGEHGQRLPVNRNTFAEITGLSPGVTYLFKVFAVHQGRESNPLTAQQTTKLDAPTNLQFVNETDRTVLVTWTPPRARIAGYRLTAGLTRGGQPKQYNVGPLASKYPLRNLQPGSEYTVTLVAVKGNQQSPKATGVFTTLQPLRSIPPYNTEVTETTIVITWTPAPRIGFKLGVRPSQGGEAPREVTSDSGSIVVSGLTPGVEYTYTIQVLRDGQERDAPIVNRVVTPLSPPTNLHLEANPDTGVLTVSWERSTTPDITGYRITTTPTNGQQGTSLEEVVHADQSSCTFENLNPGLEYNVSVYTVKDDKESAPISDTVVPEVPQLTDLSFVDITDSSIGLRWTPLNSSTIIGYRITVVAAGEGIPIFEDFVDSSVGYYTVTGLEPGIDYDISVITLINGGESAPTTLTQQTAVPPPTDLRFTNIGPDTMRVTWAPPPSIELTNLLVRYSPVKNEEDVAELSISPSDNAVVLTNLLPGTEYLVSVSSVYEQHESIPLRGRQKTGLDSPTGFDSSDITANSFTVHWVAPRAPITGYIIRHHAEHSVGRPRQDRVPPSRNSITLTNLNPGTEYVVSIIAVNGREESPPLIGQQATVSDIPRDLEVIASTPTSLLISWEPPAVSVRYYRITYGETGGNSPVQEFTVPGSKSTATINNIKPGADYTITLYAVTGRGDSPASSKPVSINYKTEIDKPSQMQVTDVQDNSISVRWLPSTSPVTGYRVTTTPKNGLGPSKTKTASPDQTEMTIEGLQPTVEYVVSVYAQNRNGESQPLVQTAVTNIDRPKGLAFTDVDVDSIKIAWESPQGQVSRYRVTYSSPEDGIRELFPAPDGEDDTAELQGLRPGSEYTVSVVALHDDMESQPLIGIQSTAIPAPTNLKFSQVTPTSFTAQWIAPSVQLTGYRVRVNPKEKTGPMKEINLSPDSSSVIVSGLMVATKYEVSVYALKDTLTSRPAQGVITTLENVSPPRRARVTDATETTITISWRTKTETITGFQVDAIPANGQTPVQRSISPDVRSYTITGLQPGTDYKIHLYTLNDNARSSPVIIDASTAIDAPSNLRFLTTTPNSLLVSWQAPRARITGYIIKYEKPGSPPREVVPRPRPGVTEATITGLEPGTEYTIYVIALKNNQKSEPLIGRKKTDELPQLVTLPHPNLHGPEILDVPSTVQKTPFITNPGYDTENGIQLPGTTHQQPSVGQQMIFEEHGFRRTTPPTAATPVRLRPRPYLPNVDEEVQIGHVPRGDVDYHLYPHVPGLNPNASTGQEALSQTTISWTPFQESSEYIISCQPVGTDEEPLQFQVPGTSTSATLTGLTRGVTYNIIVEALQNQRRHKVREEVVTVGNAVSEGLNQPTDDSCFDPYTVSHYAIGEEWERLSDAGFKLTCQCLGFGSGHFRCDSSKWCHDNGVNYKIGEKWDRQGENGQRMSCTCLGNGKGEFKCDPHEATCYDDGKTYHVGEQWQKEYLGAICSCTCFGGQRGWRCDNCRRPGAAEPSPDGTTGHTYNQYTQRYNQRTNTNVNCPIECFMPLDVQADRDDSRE
Protocol: Affinity-based proteomics: Murine VSMCs were grown to confluence in serum-containing media and changed to serum-free media to generate enriched media. […] An aliquot was removed after incubation as the “input” fraction. Media was then added to a slurry of Pierce Anti-c-Myc Magnetic Beads+0.05% Tween 20 and incubated for 30 minutes while rocking at 4° C. The beads were then washed twice with Ca^2+ and Mg^2+-containing PBS (D8662, Sigma) +0.05% Tween 20 and twice with Ca^2+ and Mg^2+-containing PBS before a final resuspension in PBS. An aliquot of the beads was reserved as the pulldown fraction for validation. […] The samples were incubated for 4 hours prior to dialysis. Protease arrest (G-Biosciences) was added and excess biotin was dialyzed using a 10 kDa molecular weight cut-off (MWKO) Slide-A-Lyzer™ dialysis Cassette (ThermoFisher Scientific) in buffered saline+1 mM EDTA. The samples were then transferred to 10 kDa MWKO Vivasin column (Sartorius Stedim Biotech), centrifuged, resuspended in RIPA buffer, centrifuged, and added to pre-washed Pierce Streptavidin Magnetic Beads. The samples and beads were incubated for 1 hour at room temperature or overnight at 4° C. and then washed with the following solutions: RIPA buffer, 1M 732 KCl, 0.1M Na2CO3, 2M urea in 10 mM Tris HCl (pH=8.0), and PBS. The beads were then resuspended in PBS for peptide preparation.
For assay [7], the system named is AKT. Nature of the assay: AKT signaling immunoblot, platelets. It is filed as cell-based, human. To be noted: platelets, vs BSA. The method, then: Prior to performing signaling assays, cells were trypsinized, centrifuged, suspended in basal media, and counted using an automated hemocytometer. Cells were further diluted in basal media to an assay-dependent concentration. Cells were then incubated with gentle agitation for 60 minutes to prevent cell attachment and reduce basal signaling. PP1, Dynasore, MK-2206, and Rapamycin were diluted in DMSO and used in assay concentrations of 10 μM, 100 μM, 10 μM, and respectively, for the final 20-30 minutes of incubation in basal media. An equal volume of DMSO was used as the negative control condition. […] 1 μg Pearl 1 polyclonal antibody was added as a specific positive control. 20% growth media or 2% fetal bovine serum, labeled “Serum” in figures, was added as a non-specific positive control. The cells were centrifuged at 300G for 3 minutes with the exception of platelets, which were centrifuged at 500G for 5 minutes. The cells were then incubated at 37° C. for 8-45 minutes, depending on the cell type and pathway of interest. The cells were lysed in radioimmunoprecipitation buffer (RIPA) containing a cocktail of protease and phosphatase inhibitors and universal nuclease. Immunoblots were performed by standard techniques, as briefly follows. Protein content was determined using a bicinchoninic acid assay with BSA standards (#23225, Pierce BCA Protein Assay Kit). Cell lysates were then reduced with dithiothreitol (DTT) in lithium dodecyl sulfate (LDS) sample buffer (#NP0007, Invitrogen). Equal protein amounts were added to polyacrylamide gels (#4561086, BioRad) and electrophoresed prior to transferring to a nitrocellulose or polyvinylidene fluoride membrane (#1620260, BioRad). Membranes were blocked in 5% BSA/Tris-buffered saline (TBS) with 0.1% Tween 20 for 30 minutes. The indicated primary antibodies were incubated with the pre-blocked membranes overnight at 4° C. Membranes were washed with TBS with 0.1% Tween 20, probed with fluorescent secondary antibodies, and imaged. β-actin or β-tubulin served as a loading control.
Whole blood was collected by venipuncture into either heparin vacutainers (BD, Franklin Lakes) for whole blood experiments or acid-citrate-dextrose (ACD) vacutainers (BD, Franklin Lakes) for platelet isolation studies. For platelet isolation, samples were supplemented with apyrase (Sigma, St Louis) and prostaglandin E1 (Cayman Chemical, Ann Arbor), and platelet-rich plasma (PRP) was prepared by centrifugation of the ACD whole blood for 20 minutes at 200G. Platelets were isolated from the PRP by centrifugation for 10 minutes at 1000G and resuspended in modified Tyrode's buffer twice at desired platelet counts and kept at 37° C. until used. Isolated platelets were used within 2 hours of preparation.

Assay [8] has as its system Human platelets. To be noted: static conditions, with and without 0.1 U/mL thrombin.
Protocol: Subsequently, coverslips were blocked with 1% BSA and washed with PBS. Human platelets were isolated from whole blood and re-suspended in Tyrode's buffer. 2×10^7/mL basal or thrombin activated platelets were added to coverslips and incubated at 37° C. for 10, 20, or 30 minutes. After incubation, non-adherent platelets were removed and the coverslips were washed with PBS, fixed with 1.5% paraformaldehyde, permeabilized with 0.01% Triton-X and stained with TRITC phalloidin. Platelets were visualized using fluorescent microscopy. Images of the adhered platelets were captured using fluorescent microscopy and counted manually by a blinded observer.
In assay [9] the test system is mTOR. Put plainly: mTOR signaling, phospho-array and immunoblot, HUVECs. It is filed as cell-based, human. The method, then: Prior to performing signaling assays, cells were trypsinized, centrifuged, suspended in basal media, and counted using an automated hemocytometer. Cells were further diluted in basal media to an assay-dependent concentration. Cells were then incubated with gentle agitation for 60 minutes to prevent cell attachment and reduce basal signaling. PP1, Dynasore, MK-2206, and Rapamycin were diluted in DMSO and used in assay concentrations of 10 μM, 100 μM, 10 μM, and respectively, for the final 20-30 minutes of incubation in basal media. An equal volume of DMSO was used as the negative control condition. […] 1 μg Pearl 1 polyclonal antibody was added as a specific positive control. 20% growth media or 2% fetal bovine serum, labeled “Serum” in figures, was added as a non-specific positive control. The cells were centrifuged at 300G for 3 minutes with the exception of platelets, which were centrifuged at 500G for 5 minutes. The cells were then incubated at 37° C. for 8-45 minutes, depending on the cell type and pathway of interest. The cells were lysed in radioimmunoprecipitation buffer (RIPA) containing a cocktail of protease and phosphatase inhibitors and universal nuclease. Immunoblots were performed by standard techniques, as briefly follows. Protein content was determined using a bicinchoninic acid assay with BSA standards (#23225, Pierce BCA Protein Assay Kit). Cell lysates were then reduced with dithiothreitol (DTT) in lithium dodecyl sulfate (LDS) sample buffer (#NP0007, Invitrogen). Equal protein amounts were added to polyacrylamide gels (#4561086, BioRad) and electrophoresed prior to transferring to a nitrocellulose or polyvinylidene fluoride membrane (#1620260, BioRad). Membranes were blocked in 5% BSA/Tris-buffered saline (TBS) with 0.1% Tween 20 for 30 minutes. The indicated primary antibodies were incubated with the pre-blocked membranes overnight at 4° C. Membranes were washed with TBS with 0.1% Tween 20, probed with fluorescent secondary antibodies, and imaged. β-actin or β-tubulin served as a loading control. […]

Sequence of Pearl 1ECD (Q5VY43 21-755 limits assumed): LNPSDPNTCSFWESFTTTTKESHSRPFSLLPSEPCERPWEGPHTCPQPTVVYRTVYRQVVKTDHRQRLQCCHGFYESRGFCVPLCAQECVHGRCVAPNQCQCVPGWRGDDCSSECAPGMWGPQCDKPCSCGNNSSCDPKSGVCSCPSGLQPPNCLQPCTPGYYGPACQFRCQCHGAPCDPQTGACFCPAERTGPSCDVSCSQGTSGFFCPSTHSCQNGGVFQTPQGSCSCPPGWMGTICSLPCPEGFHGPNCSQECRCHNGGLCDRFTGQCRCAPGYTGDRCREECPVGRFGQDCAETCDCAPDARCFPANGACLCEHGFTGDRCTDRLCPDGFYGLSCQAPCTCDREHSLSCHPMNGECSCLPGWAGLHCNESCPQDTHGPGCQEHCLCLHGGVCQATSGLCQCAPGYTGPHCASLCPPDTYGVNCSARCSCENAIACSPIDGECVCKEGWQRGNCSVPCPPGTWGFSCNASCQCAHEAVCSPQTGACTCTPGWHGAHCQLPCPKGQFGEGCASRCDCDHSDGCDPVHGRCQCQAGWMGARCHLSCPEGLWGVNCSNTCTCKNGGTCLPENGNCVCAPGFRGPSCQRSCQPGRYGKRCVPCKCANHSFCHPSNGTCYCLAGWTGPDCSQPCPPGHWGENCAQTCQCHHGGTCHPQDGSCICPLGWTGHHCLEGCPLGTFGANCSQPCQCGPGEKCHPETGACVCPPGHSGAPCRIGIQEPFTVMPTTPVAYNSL

Turning to “SVEP1: recombinant murine SVEP1 extracellular matrix protein with Myc and poly-histidine tag, expressed in 293F cells”, the “pAKT, AKT pathway phospho-array” value in [1] (10 or 30 minutes, SVEP1 relative to BSA) was “Elevated pAKT”. The AKT signaling result in assay [1] (relative to BSA controls) was “activated”. For the same substance, in assay [2] (293T cells transfected with Pearl 1-expression plasmid (constitutive AKT activation)), the pAKT levels entry is “no additional effect on pAKT levels”. Further, the AKT activation result in assay [2] (293T cells, which lack Pearl 1) is on record as “Neither SVEP1 nor Pearl 1 pAb activated AKT”. Also, the “adhesion of THP-1 cells” value in assay [3] is “adhered to SVEP1 in a dose-dependent manner”. Moreover, in assay [4], the “co-immunoprecipitation of Pearl 1ECD with Myc-tagged SVEP1” value is recorded as “co-immunoprecipitates”. Further, the integrin signaling entry in [5] is on record as “activated”. Moreover, the “pulldown of Fibronectin” value in assay [6] is “confirmed”. Besides, the “AKT phosphorylation (pAKT)” value in assay [7] was “induced AKT phosphorylation”. Besides, in [8], the “adherence of platelets to coated coverslips” value was “adhered”. Further, in assay [9] (10 or 30 minutes), the “phosphorylated mTOR (Ser 2448) and p70S6K Thr 389, immunoblot” value is on record as “activation of mTOR signaling”. Also, in [9] (10 minutes of exposure), the AKT pathway phospho-proteins result was “Few changes”. In [9] (30 minutes of exposure), the “mTOR pathway phospho-proteins (p70S6K, RPS6, 4E-BP1)” value was “elevated”.

For the origin of these results see US20230159620A1, “COMPOSITIONS AND METHODS OF TREATMENT FOR VASCULAR DISEASES AND THROMBOSIS” (Washington University, priority 2021, published 2023).
